Article PMC2074783, “Metabolism and pharmacokinetics of the anti-tumour agent 2,3,5-trimethyl-6-(3-pyridylmethyl)1,4-benzoquinone (CV-6504)” (British Journal of Cancer, 1996)

Key:
MAC13 cells = assay: Growth of MAC13 cells in vitro after 72 h; type: cell-based, murine; details: for Inhibition of the growth of MAC13 cells in vitro: concentrations up to 100 µM, 72 h
Excerpt: (§1) Bridsh Journal of Cancer (1996) 74, 1349-1353 ? 1996 Stockton Press All rights reserved 0007-0920/96 $12.00 Metabolism and pharmacokinetics of the anti-tumour agent 2,3,5- trimethyl-6-(3-pyridylmethyl) 1,4-benzoquinone (CV-6504) H J Hussey and M J Tisdale Pharmaceutical Sciences Institute, Aston University, Birmingham B4 7ET, UK. Summary 2,3,5-Trimethyl-6-(3-pyridylmethyl)1,4-benzoquinone (CV-6504) is an effective inhibitor of the growth of established murine adenocarcinomas (MACs) and is shortly to enter clinical investigation. When administered to mice bearing the MAC16 tumour, CV-6504 rapidly disappeared from the plasma and tissues and there was an accumulation of the sulphate and glucuronide metabolites. […] The concentration of glucuronide and sulphate metabolites in both tumour and liver decreased with time. […] Although the sulphate and glucuronide conjugates of CV-6504 were ineffective inhibitors of the growth of MAC13 cells in vitro at concentrations up to 100 µM, in vivo at a concentration of 50 mg kg-' day-' the conjugates produced a similar anti-tumour effect to CV-6504 at a concentration of 5 mg kg-} day-l. […] Using MAC13 cells ex vivo, CV-6504 inhibited conversion of arachidonic acid to 5-, 12- and 15- hydroxyeicosatetraenoic acids (HETE). The percentage reduction in formation of 12- and 15-HETE exceeded that of 5-HETE. Inhibition of HETE formation may be responsible for the anti-tumour activity of CV-6504. […] Our own studies have identified the 5-lipoxygenase inhibitor (Ohkawa et al., 1991a), 2,3,5-trimethyl-6-(3-pyridyl- methyl)1,4-benzoquinone (CV-6504), as an effective inhibitor of the growth of established murine adenocarcinomas (MAC) in vivo with a therapeutic index of at least 10 (Hussey et al., 1996). […] CV-6504 undergoes rapid reduction by two-electron donating enzymes, such as DT-diaphorase, and the resulting hydroquinone inhibits both 5-lipoxygenase activity and lipid peroxidation on the basis of its antioxidant ability (Ohkawa et al., 199 lb) by reducing the ferric iron in the active site of the enzyme to the ferrous (resting state). Studies on the metabolism of CV-6504 by mice, rats, dogs and monkeys indicate reduction of the quinone ring and subsequent conjugation to yield the 1- and 4-glucuronides and the corresponding sulphates (Takeda Chemical Co., personal communication). […] In the present study the tumour and tissue levels of CV- Correspondence: HJ Hussey Received 4 March 1996; revised 21 May 1996; accepted 29 May 1996 6504 and its glucuronide and sulphate metabolites have been determined after single and consecutive dosing of mice bearing the MAC16 adenocarcinoma. A comparison has also been made between CV-6504 and its glucuronide and sulphate metabolites on tumour growth and metabolism of AA along the lipoxygenase pathways with a view to establishing the mechanism of the anti-tumour effect. Material and methods Pure strain NMRI mice were obtained from our own breeding colony and were fed a rat and mouse breeding diet (Pilsbury's, Birmingham) and water ad libitum. Male animals weighing 20-25 g were transplanted subcutaneously with 1-2 mm3 fragments of the MAC16 or MAC13 tumours by trocar into the right flank. The experiments were initiated when the tumour volume, calculated from the formula: length x (width)2 2 was between 72 and 128 mm3. Tumour dimensions were measured by calipers. […]

MAC13 tumour = assay: Growth of the MAC13 tumour in vivo; design: species or system NMRI mice; details: 50 mg kg-1 daily p.o.; for Anti-tumour activity in comparison with the 1-glucuronide and 4-sulphate: MAC13 tumour, difference not significant
Excerpt: as §1, with “calipers. Mice bearing the MAC13 tumour were subject to restricted randomisation into groups of nine to receive either CV-6504 (5 mg kg-') or the 1- or 4- glucuronide, or the 1- or 4-sulphate (50 mg kg-'). CV-6504 and the sulphate and glucuronide metabolites were supplied by Takeda Chemical Industries Ltd., Osaka, Japan and were administered p.o. daily in aqueous solution (0.1 ml). Control animals received water alone (0.1 ml).” for “calipers.”

[1] = Metabolism and tissue levels of [14C]CV-6504 in mice bearing the MAC16 tumour; details: male, NMRI, mouse, in vivo, 24 h
Excerpt: Bridsh Journal of Cancer (1996) 74, 1349-1353 ? 1996 Stockton Press All rights reserved 0007-0920/96 $12.00 Metabolism and pharmacokinetics of the anti-tumour agent 2,3,5- trimethyl-6-(3-pyridylmethyl) 1,4-benzoquinone (CV-6504) H J Hussey and M J Tisdale Pharmaceutical Sciences Institute, Aston University, Birmingham B4 7ET, UK. Summary 2,3,5-Trimethyl-6-(3-pyridylmethyl)1,4-benzoquinone (CV-6504) is an effective inhibitor of the growth of established murine adenocarcinomas (MACs) and is shortly to enter clinical investigation. When administered to mice bearing the MAC16 tumour, CV-6504 rapidly disappeared from the plasma and tissues and there was an accumulation of the sulphate and glucuronide metabolites. […] The concentration of glucuronide and sulphate metabolites in both tumour and liver decreased with time. […] In the present study the tumour and tissue levels of CV- Correspondence: HJ Hussey Received 4 March 1996; revised 21 May 1996; accepted 29 May 1996 6504 and its glucuronide and sulphate metabolites have been determined after single and consecutive dosing of mice bearing the MAC16 adenocarcinoma. […] The experiments were initiated when the tumour volume, calculated from the formula: length x (width)2 2 was between 72 and 128 mm3. Tumour dimensions were measured by calipers. […]

[2] = test system: conversion of arachidonic acid to HETEs in MAC13 cells; assay: Lipoxygenase metabolites of arachidonate in MAC13 tumour cells ex vivo; type: cell-based, murine
Excerpt: as §1, with “calipers. Mice bearing the MAC13 tumour were subject to restricted randomisation into groups of nine to receive either CV-6504 (5 mg kg-') or the 1- or 4- glucuronide, or the 1- or 4-sulphate (50 mg kg-'). CV-6504 and the sulphate and glucuronide metabolites were supplied by Takeda Chemical Industries Ltd., Osaka, Japan and were administered p.o. daily in aqueous solution (0.1 ml). Control animals received water alone (0.1 ml).” for “calipers.”

MAC16 cells = assay: Inhibition of the growth of MAC16 cells in vitro; type: cell-based, murine; details: Mus musculus, tissue culture

In the case of `Cc1c(C)c(OS(=O)(=O)O)c(C)c(Cc2cccnc2)c1O` [4-sulphate], the “Inhibition of the growth of MAC13 cells in vitro” value (“Inhibition” below) (MAC13 cells) is reported as “ineffective” and the “Anti-tumour activity against MAC13 tumour in vivo compared with free CV-6504 at 5 mg kg-1 day-1 orally” value (MAC13 tumour) is reported as “similar”.
In the case of `CC1=C(C)C(=O)C(Cc2cccnc2)=C(C)C1=O` [CV-6504, 2,3,5-Trimethyl-6-(3-pyridylmethyl)1,4-benzoquinone], the “concentration of free CV-6504 in the liver” value [1] is reported as 240 nM, the “concentration of free CV-6504 in the tumour” value [1] is reported as 3300 nM and the “percentage reduction in formation of 12- and 15-HETE relative to that of 5-HETE” value ([2]; 10 µM, 30 min) is reported as “exceeded”. The 5-HETE production ([2]; 10 µM, 30 min, [3H]AA) was “significantly decreased”, the 11-HETE production ([2]; 10 µM, 30 min, [3H]AA) was “significantly decreased” and the 12-HETE production ([2]; 10 µM, 30 min, [3H]AA) was “significantly decreased”. For the same molecule, the 15-HETE production ([2]; 10 µM, 30 min, [3H]AA) was “significantly decreased”, the “total unmetabolised AA” value ([2]; 10 µM, 30 min, [3H]AA) was “significantly decreased” and the IC50 (MAC16 cells) was 3000 nM. The IC50 (MAC13 cells; Mus musculus, MAC13, 72 h, read-out: IC50 for inhibition of growth of MAC13 cells in vitro) was 3000 nM.
In the case of `Cc1c(C)c(OC2OC(C(=O)O)C(O)C(O)C2O)c(Cc2cccnc2)c(C)c1O` (stereo not shown) [CV-6504-1-glucuronide], the “Inhibition” value (MAC13 cells) is reported as “ineffective” and the “Anti-tumour activity against MAC13 tumour in vivo compared with free CV-6504 at 5 mg kg-1 day-1 orally” value (MAC13 tumour) is reported as “similar”.
In the case of `Cc1c(C)c(OS(=O)(=O)O)c(Cc2cccnc2)c(C)c1O` [CV-6504-1-sulphate], the 12-HETE production ([2]; 100 µM, 30 min) is reported as “significantly reduced”, the 15-HETE production ([2]; 100 µM, 30 min) is reported as “significantly reduced” and the 11-HETE production ([2]; 100 µM, 1 h) is reported as “significantly reduced”. For the same molecule, the 5-HETE production ([2]; 100 µM, 2 h) was “significantly reduced”, the “Inhibition” value (MAC13 cells) was “ineffective” and the “Anti-tumour activity against MAC13 tumour in vivo compared with free CV-6504 at 5 mg kg-1 day-1 orally” value (MAC13 tumour) was “similar”. For the same molecule, the “Anti-tumour activity in comparison with the 1-glucuronide and 4-sulphate” value (MAC13 tumour) was “slightly reduced”.
For `Cc1c(C)c(OC2OC(C(=O)O)C(O)C(O)C2O)c(C)c(Cc2cccnc2)c1O` (stereo not shown) [CV-6504-4-glucuronide], the 5-HETE production ([2]; 100 µM, 30 min) was “significantly reduced”, the 11-HETE production ([2]; 100 µM, 30 min) was “significantly reduced” and the 12-HETE production ([2]; 100 µM, 30 min) was “significantly reduced”. The 15-HETE production ([2]; 100 µM, 1 h) was “significantly reduced”, the “Inhibition” value (MAC13 cells) was “ineffective” and the “Anti-tumour activity against MAC13 tumour in vivo compared with free CV-6504 at 5 mg kg-1 day-1 orally” value (MAC13 tumour) was “similar”. The “Anti-tumour activity in comparison with the 1-glucuronide and 4-sulphate” value (MAC13 tumour) was “slightly reduced”.
